Assay results taken from the NIST ThermoML archive (doi:10.1016/j.jct.2014.01.022).
Numbers after ± are expanded uncertainties.

Legend:
[1] = refractive index (Na D-line) (dimensionless); conditions: 298.15 K; 101.33 kPa; Liquid; Standard Abbe refractometry
[2] = 298.15 K; 101.33 kPa; Liquid; Vibrating tube method

Compound | refractive index [1] | mass density [2] [kg/m3]
CCCC[n+]1ccn(C)c1.O=S(=O)([N-]S(=O)(=O)C(F)(F)F)C(F)(F)F | 1.42706 ± 0.00031 | 1436.35 ± 0.22
CCCn1cc[n+](C)c1.O=S(=O)([N-]S(=O)(=O)C(F)(F)F)C(F)(F)F | 1.42526 ± 0.00033 | 1474.44 ± 0.33
c1ccccc1 [benzene] | 1.49774 ± 0.00037 | 873.57 ± 0.24
CCc1ccccc1 [ethylbenzene] | 1.49304 ± 0.00037 | 862.51 ± 0.24
CCCCCCCCC [nonane] | 1.40326 ± 0.00031 | 713.9 ± 0.17
CCCCCCCC [octane] | 1.39519 ± 0.00037 | 698.6 ± 0.25
Cc1ccccc1 [toluene] | 1.49399 ± 0.00031 | 862.17 ± 0.13
